# Experimental data from article PMC4627230, “Identification of TAX2 peptide as a new unpredicted anti-cancer agent” (Oncotarget, 2015).
# Assays:
# Assay type in all cases: cell-based, human
# VEGFR2 = test: VEGF-induced VEGFR2 phosphorylation; settings: HUVECs, 100 μM for 12 h, then 30 ng/mL VEGF 5 min; n = 3
# [1] = system: CD36-containing complex / activated VEGFR2; test: CD36 co-immunoprecipitation of activated VEGFR2; settings: HUVECs, 100 μM for 12 h, then 30 ng/mL VEGF 5 min
# Method: Figure 3 Anti-angiogenic properties of TAX2 are mediated by TSP-1 binding to CD36 A. Expression of CD36 in HUVECs was assessed by immunoblotting (left panel) and immunofluorescence staining (right panel, red). Nuclei were counterstained with DAPI (blue). B. HUVECs were incubated with 100 μM cyclic TAX2 or in control conditions for 24 h. Then, CD36-containing complexes were co-immunoprecipitated from whole cell extracts (non-specific IgGs were used as a negative control for immunoprecipitation). Immunocomplexes were submitted to SDS-PAGE and immunoblotted (IB) by using specific antibodies for TSP-1 and CD36. The presence of TSP-1 in immunocomplexes was quantified by densitometric analysis relative to immunoprecipitated CD36. C. VEGFR2 phosphorylation induced by VEGF in the presence of TAX2. After overnight serum starvation, HUVECs were pre-treated with 100 μM TAX2 or control for 12 h, then incubated with 30 ng/mL VEGF for 5 min. […] Data are expressed as the mean ± SE (n = 3; *p < 0.05, ANOVA). […] Quantification of total tube-like network length was realized using ImageJ software E. Branching points F. and nodal structures G. were numbered using the S.CORE web-based system. Data are expressed as the mean ± SE (n = 3; *p < 0.05, ANOVA). […]
# HUVECs = test: Boyden chamber / Transwell migration assay
# Method: Figure 2 TAX2 peptide impairs endothelial cell migration and inhibits angiogenesis in vitro and ex vivo A. HUVECs were treated with TAX2 (100 μM) or scrambled peptide (Ctrl, 100 μM). CD47 was immunoprecipitated from total protein lysates using anti-CD47 (clone B6H12) and non-specific IgGs were used as a negative control. Immunocomplexes were then submitted to SDS-PAGE and immunoblotted (IB) using specific TSP-1 and CD47 antibodies. Histogram represents the quantification of co-immunoprecipitated TSP-1 relative to immunoprecipitated CD47. Results are expressed as percentage compared to control (n = 3 separate experiments, t test). B. HUVECs (1 × 10^5 per well) were grown at confluence and then cell proliferation was inhibited by incubating with 10 μg/mL mitomycin C for 2 h. Migration assays were performed for 9 h with or without TAX2 peptide (100 μM), as described in Materials and Methods. Photographs (100×) were taken every 3 h. Graph represents the quantification of the wounded area. […] Hoechst-stained migrating cells attached on outside surface of the top chamber were photographed (20× objective) and counted. Results are expressed as percentage of migrated cells as compared to control. […] After 8 h incubation, HUVEC tube-like formation was observed on an inverted microscope (40×) and quantification of network total length was done using ImageJ software. […] Data are expressed as the mean ± SE from at least 3 independent experiments, each performed in triplicate. […] The transcriptional level of TSP-1 was assessed by RT-PCR and normalized to β-actin. […] After 6 days incubation in the presence of 100 μM TAX2 or control peptide (Ctrl), images were taken with an inverted microscope (40×) and microvessel area was quantified using ImageJ software. […]
# Figure 3 Anti-angiogenic properties of TAX2 are mediated by TSP-1 binding to CD36 A. Expression of CD36 in HUVECs was assessed by immunoblotting (left panel) and immunofluorescence staining (right panel, red). […] The presence of TSP-1 in immunocomplexes was quantified by densitometric analysis relative to immunoprecipitated CD36. […]
sequence,measurement,setting,value
"CEVSQLLKGDAC (disulfide) [TAX2, CD47-derived cyclic disulfide dodecapeptide …]",VEGF-induced VEGFR2 phosphorylation,VEGFR2,partially reverses VEGF-induced VEGFR2 phosphorylation
same,association of activated VEGFR2 to a CD36-containing complex,[1],association of activated VEGFR2 to a CD36-containing complex
same,inhibition of endothelial cell migration (Boyden chamber),"HUVECs; HUVECs, 100 μM, 12 h, EGM-2, mean of 5 in triplicate",50%
same,prevention of endothelial cell migration in presence of CD36 blocking antibody,"HUVECs; HUVECs, 100 μM, 12 h, anti-CD36 10 μg/mL, n = 3",wholly reversed
same,concentration of optimal inhibition of endothelial cell migration,"HUVECs; dose-response assay, data not shown, migration format not specified",100 µM
